On the set-up of data set [1]: method as in Lee et al., 1997; Wohlrab et al., 2015. To be noted: assumed value; ref Lee et al., 1997; Wohlrab et al., 2015; cited from earlier work.
Data set [2] deals with voltage-gated Na+ channels. As to conditions: cited from earlier work.
The next data set concerns the target T1, human 5-HT3AB receptors (Homo sapiens, UniProt O95264+P46098).
T1 construct: host or cells: Xenopus laevis oocytes, subunits injected at ratios 1:1 or 1:2
T1 sequence (P46098 24-478): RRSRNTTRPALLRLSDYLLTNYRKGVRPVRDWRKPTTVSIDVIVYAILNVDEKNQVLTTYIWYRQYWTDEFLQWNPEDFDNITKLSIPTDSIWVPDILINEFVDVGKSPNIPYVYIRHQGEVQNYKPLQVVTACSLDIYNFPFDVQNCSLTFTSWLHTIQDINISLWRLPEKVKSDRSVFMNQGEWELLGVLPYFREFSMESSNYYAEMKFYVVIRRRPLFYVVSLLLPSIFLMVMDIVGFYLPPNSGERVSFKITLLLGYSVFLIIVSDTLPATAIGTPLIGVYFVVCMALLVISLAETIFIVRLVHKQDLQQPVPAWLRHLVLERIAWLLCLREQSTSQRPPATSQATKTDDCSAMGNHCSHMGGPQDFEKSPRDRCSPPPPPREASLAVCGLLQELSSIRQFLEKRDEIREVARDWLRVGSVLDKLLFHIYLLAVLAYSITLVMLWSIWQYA
T1 sequence (O95264 22-441): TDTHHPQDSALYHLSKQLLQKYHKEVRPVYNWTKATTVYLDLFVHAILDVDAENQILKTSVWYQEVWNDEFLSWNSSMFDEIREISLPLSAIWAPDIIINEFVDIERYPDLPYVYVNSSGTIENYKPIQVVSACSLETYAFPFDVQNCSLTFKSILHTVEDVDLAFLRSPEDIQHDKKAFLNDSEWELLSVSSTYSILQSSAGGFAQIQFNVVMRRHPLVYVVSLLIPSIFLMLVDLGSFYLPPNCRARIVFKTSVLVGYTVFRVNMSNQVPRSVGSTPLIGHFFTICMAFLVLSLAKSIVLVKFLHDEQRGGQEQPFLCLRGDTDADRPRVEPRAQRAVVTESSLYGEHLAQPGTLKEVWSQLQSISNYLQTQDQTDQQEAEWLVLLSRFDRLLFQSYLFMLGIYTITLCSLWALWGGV
The data set is described as follows: Two-electrode voltage clamp in Xenopus oocytes co-expressing 5-HT3A and 5-HT3B subunits. To be noted: 100 µM; 3 µM 5-HT for 5-HT3A and 30 µM 5-HT for 5-HT3AB; n = 5–7, P>0.05. Type of data set: cell-based. The text has this:
Mature female Xenopus laevis frogs were obtained from Xenopus leavis I, Ann Arbor, MI, USA. Experiments and methods used in this study were in accordance with the Guide for the Care and Use of Laboratory Animals of the National Institutes of Health (Bethesda, MD, USA) and our protocol (A9/08) was approved by the Institutional Animal Care and Use Committee at the College of Medicine and Health Sciences, United Arab Emirates University. Clusters of oocytes were removed surgically under benzocaine (0.03% w/v; Sigma, St.Louis, MO) anesthesia. Individually dissected oocytes were stored for 2 to 8 days in modified Barth’s solution (MBS) containing (in mM): NaCl 88; KCl 1; NaHCO3 2.4; CaCl2; 2; MgSO4 0.8; HEPES 10 (pH 7.5), supplemented with sodium pyruvate 2 mM, penicillin 10,000 IU/L, streptomycin 10 mg/L, gentamicin 50 mg/L, and theophylline 0.5 mM. Human 5-HT3A receptor cRNA (3 ng in 50 nl) was injected into each oocyte as described before ([Ashoor et al., 2013]). In co-expression of subunit combinations, cDNAs for 5-HT3A and 5-HT3B subunits, were mixed in ratios of 1:1 (or 1:2), respectively. […] Current responses were digitized by A/D converter and analyzed using pClamp 10.4 (Molecular Devices-Axon Instruments, San Jose, CA USA) or Origin™ (Originlab Corp. Northampton, MA, USA), run on an IBM/PC. […]

The test system of another data set is Ca2+ channels. To be noted: cited from earlier work.
For a further data set, the system named is K+ channels. As to conditions: cited from earlier work.
Details of data set [3]: method as in Rollyson et al., 2014; Swain and Kumar Mishra, 2015. As to conditions: ref Rollyson et al., 2014; Swain and Kumar Mishra, 2015; cited from earlier work.
Another data set deals with T2, human 5-HT3 receptor (Homo sapiens, UniProt P46098).
T2 sequence (P46098 24-478): T1 sequence (P46098 24-478)
The data set is described as follows: Two-electrode voltage clamp of 5-HT-induced currents in Xenopus oocytes expressing human 5-HT3A receptor. Further details: host or cells: Xenopus laevis oocytes injected with cRNA. Type of data set: cell-based. The source says: Mature female Xenopus laevis frogs were obtained from Xenopus leavis I, Ann Arbor, MI, USA. Experiments and methods used in this study were in accordance with the Guide for the Care and Use of Laboratory Animals of the National Institutes of Health (Bethesda, MD, USA) and our protocol (A9/08) was approved by the Institutional Animal Care and Use Committee at the College of Medicine and Health Sciences, United Arab Emirates University. Clusters of oocytes were removed surgically under benzocaine (0.03% w/v; Sigma, St.Louis, MO) anesthesia. Individually dissected oocytes were stored for 2 to 8 days in modified Barth’s solution (MBS) containing (in mM): NaCl 88; KCl 1; NaHCO3 2.4; CaCl2; 2; MgSO4 0.8; HEPES 10 (pH 7.5), supplemented with sodium pyruvate 2 mM, penicillin 10,000 IU/L, streptomycin 10 mg/L, gentamicin 50 mg/L, and theophylline 0.5 mM. […] In co-expression of subunit combinations, cDNAs for 5-HT3A and 5-HT3B subunits, were mixed in ratios of 1:1 (or 1:2), respectively. Following day, oocytes were placed in a 0.2 ml recording chamber and superfused at a constant rate of 3 to 5 ml/min. […] The oocytes were impaled with two standard glass microelectrodes filled with a 3 M KCl (1–3 MΩ) and voltage clamped at a holding potential of −70 mV using GeneClamp-500B amplifier (Axon Instruments Inc., Burlingame, CA). […] Compounds were applied by addition to the superfusate. […] Injections were performed 10 min prior to recordings using oil-driven ultra microsyringe pumps (Micro4; WPI, Inc. Sarasota, FL, USA).
The cDNA clones of the human 5-HT3A and 5-HT3B subunits were provided by OriGen Inc. (Rockville, MD). Complementary RNAs (cRNAs) were synthesized in vitro using a mMessage mMachine RNA transcription kit (Ambion Inc., Austin, TX). The quality and size of synthesized cRNAs were confirmed by denatured RNA agarose gels.
For the nonlinear curve fitting and regression fits of the dose-response curves and radio-ligand binding data, the computer software Origin™ 8.5 (Originlab Corp. Northampton, MA, USA) was used. In functional assays, average values were calculated as mean ± standard error means (S.E.M.). Statistical significance was analyzed using ANOVA or Student’s t test and post hoc Bonferroni test was used following ANOVA. Concentration-response curves were obtained by fitting the data to the logistic equation, […]
In general terms: Two-electrode voltage clamp holds a large cell at a set potential and records current.

The target of the next data set is T3, human 5-HT3A receptor (Homo sapiens, UniProt P46098).
T3 construct: expressed in transfected cells; host or cells: HEK293-AEQ17 cells (HEK 293 stably expressing apoaequorin), transient transfection
T3 sequence (P46098 24-478): T1 sequence (P46098 24-478)
The class given is cell-based. How it is done:
Cells were seeded in 25-cm^2 cell culture flasks in Dulbecco’s modified Eagle’s medium (DMEM)/Ham’s F12 (1:1) + 10% fetal bovine serum to obtain a cell density of 50% to 70%, and the following day, transiently transfected with cDNA encoding human 5-HT3A receptor (3 µg) using Lipofectamine 2000 reagent (Thermo Fisher Scientific-Invitrogen, Waltham, MA) according to the manufacturer’s instructions. Two days after transfection, cells were harvested by centrifugation and resuspended in 0.5 ml (25-cm^2 flask) DMEM/Ham’s F12 (1:1) + 0.1% bovine serum albumin. The cell suspension was incubated with 10 μM Coelenterazine h (Thermo Fisher Scientific-Invitrogen, Waltham, MA, USA) for three hours at room temperature in the dark. […] Luminescence was measured using a Luminoskan (Thermo Fisher Scientific, Waltham, MA, USA) equipped with an injector and recorded at a sampling rate of 2 Hz for up to 60 s. At the end of the experiments, cells were lysed with Triton X-100 0.1% (v/v) and CaCl2 50 mM, and aequorin luminescence was recorded to obtain the maximum Ca^2+ response. […] Data were exported to software Origin™ 8.5 (Originlab Corp. Northampton, MA, USA).

The structures appear in SMILES notation. pIC50: −log10 of the molar value. Where two headings read alike, the source gives them in different places.

As usually defined, the pIC50 is −log10 of the IC50, conventionally taken in molar units. Take `COc1cc(CNC(=O)CCCC/C=C/C(C)C)ccc1O` [capsaicin, (E)-N-[(4-Hydroxy-3-methoxyphenyl)methyl]-8-methyl-6-nonenamide]: the “fraction of topically applied capsaicin absorbed into the skin” value in data set [1] is recorded as 2%. The pIC50 in data set [2] (ref Bielefeldt, 2000) was 4.40; in data set [2] (ref Duan et al., 2007), 4.41; in data set [2] (ref Tomohiro et al., 2013), 4.00; in data set [2] (ref Wang et al., 2007), 4.12; with Ca2+ channels (ref Castillo et al., 2007), 4.42; in the data set on Ca2+ channels (ref Kuenzi and Dale, 1996), 4.36. Also, the pIC50 was 5.00 in the data set with K+ channels (ref Aréchiga-Figueroa et al., 2017); 3.80 with K+ channels (ref Grissmer et al., 1994); 4.68 in the data set on K+ channels (ref Kuenzi and Dale, 1996); 3.99 in the data set on K+ channels (ref Wu et al., 2011). The “extent of inhibition among 5-HT3A, 5-HT3AB (1:1) and 5-HT3AB (1:2) receptors” value on human 5-HT3AB receptors is on record as “not statistically different”. Also, in data set [3], the “LogP (octanol–water partition coefficient)” value was 3.8.

On to `Oc1cc2c(cc1O)CN(C(=S)NCCc1ccc(Cl)cc1)CCC2` [capsazepine], for which the “change in amplitudes of 5-HT3 receptor-mediated currents, compound alone” value at human 5-HT3 receptor (10 µM, 5-HT 1 µM, n = 4) was “did not cause any significant change”.

With `CN1[C@@H]2CC[C@H]1C[C@@H](OC(=O)c1cc(Cl)cc(Cl)c1)C2` [MDL72222, Tropanyl 3,5-dichlorobenzoate], the “inhibition of fast inward currents activated by 5-HT (1 μM) or 2-methyl-5-HT (10 μM)” value on human 5-HT3 receptor (0.5 µM, n = 7) is listed as “completely inhibited”.

Regarding `COc1cc(C=O)ccc1O` [vanillin], the “effect on 5-HT3 receptor currents” value at human 5-HT3 receptor (100 µM for 15 min, n = 8, P>0.05) is on record as “did not affect”.

`NCCc1c[nH]c2ccc(O)cc12` [5-HT, 5-hydroxytryptamine]: the “luminescence activation in cells not transfected with 5-HT3” value at human 5-HT3A receptor (30 μM, coelenterazine h-loaded HEK-293-AEQ17 cells, n = 4) is reported as “did not cause luminescence activation”. The “slope of the aequorin concentration-response curve” value at human 5-HT3A receptor (HEK-293-AEQ17 cells transfected with human 5-HT3 receptor) is recorded as 2.7.

In the case of `COc1cc(CNC(=O)CCCCCCC(C)C)ccc1O` [dihydrocapsaicin, Dihydrocapsaicin], the inhibition at 100 µM at human 5-HT3 receptor (read-out: 5-HT3 receptors inhibited to (% )) is 62%.

The values above are taken from publication PMC7490547 (Frontiers in Pharmacology, 2020).
